Entries after “also recorded” stand apart in the source; their conditions may differ.
Legend:
MCF-7 = assay: MTT assay, antiproliferative activity; format: cell-based; settings: Homo sapiens, MCF7, 48 h drug exposure, mean ± SD
Protocol: (§1) Human cancer cell lines BEL-7402, A549, MCF-7, PC-3M, and normal renal cell line HEK293 were bought from the BeNa Culture Collection (Beijing, China). BEL7402, A549, and PC-3M were cultured in RPMI 1640 medium (Gibco, Carlsbad, CA, USA). MCF-7 and HEK293 were cultured in the DMEM medium (Gibco, CA, USA). The medium was supplemented with 10% fetal bovine serum (FBS) (CLARK, San Diego, CA, USA), 100 U/mL penicillin, and 0.1 mg/mL streptomycin (Beyotime, Nanjing, China). The cells were incubated in 5% CO2 at 37 °C.
(§2) The MTT assay was employed to assess the inhibitory effect of each compound on cell growth. A549, PC-3M, MCF-7, BEL-7402, and HEK293 cells in the logarithmic growth phase were seeded in 96-well culture plates at an inoculum density of 5 × 10^4 cells/mL. After overnight incubation at 37 °C in a 5% CO2 atmosphere, the cells fully adhered to the surface. Different concentrations of sample solutions (0, 3.125, 6.25, 12.5, 25, 50, 100 μmol/L) were added (100 μL) to treat the cells. After 48 h of drug treatment, 10 μL of a 5 mg/mL MTT solution was added to each well and incubated for 4 h at 37 °C. The supernatant was then discarded, and 150 μL of DMSO was added to dissolve the formazan. The mixture was shaken at room temperature for 15 min, and the absorbance (D) value was measured at 490 nm using a Microplate Reader (HBS-ScanY, Nanjing, China). The drug IC50 values were calculated using GraphPad Prism (v10.0). Each cell viability experiment was performed in triplicate.

PC-3M = assay: MTT assay, antiproliferative activity; format: cell-based; settings: Homo sapiens, 48 h drug exposure, mean ± SD
Protocol: as §1, §2

[1] = tested on: mitochondria of BEL-7402 cells; assay: HPLC analysis of accumulation in mitochondria; format: cell-based, human; settings: 10 μM
Protocol: BEL-7402 cells were cultured in 100 mm Petri dishes. When the cell density reached 90%, the cells were treated with different drugs, all at the same concentration (ICT and Mito-ICT-4 were both set at 10 μM). After 9 h of drug treatment, intracellular mitochondria were isolated from the different drug-treated groups using a mitochondrial isolation kit (Beyotime, Nanjing, China). The mitochondria were resuspended in 200 μL of phosphate-buffered saline (PBS), and an equal volume of anhydrous dichloromethane was added. Ultrasonic extraction was performed three times, and the lower organic phase was collected. Dichloromethane was removed, and the sample was resuspended in 200 μL of 0.1% formic acid in methanol. A 20 μL sample was analyzed and quantified by HPLC. HPLC analysis was conducted using an ALLTECH 26-201 (Jerome, CA, USA) with a flow rate of 1 mL/min. The stationary phase was Agilent ZORBAX SB-C18 (250 mm × 4.6 mm, 5 μm, Santa Clara, CA, USA), and the mobile phase consisted of methanol-0.1% formic acid in water (80:20).

BEL-7402 cells = assay: JC-1 staining, mitochondrial membrane potential; format: cell-based, human; settings: JC-1, 0.625, 1.25, 2.5 μmol/L, 48 h
Protocol: Drug grouping and administration were performed as described in Section 2.5. After 48 h of incubation, 500 μL of JC-1 fluorescent dye (Beyotime, Nanjing, China) was added to each well. The cells were stained at 37 °C for 30 min, after which the dye was discarded. The cells were then washed three times with PBS and observed under an inverted fluorescence microscope.

Cl-caspase-3 = assay: Western blot; format: cell-based, human; settings: 48 h
Protocol: (§3) Drug grouping and administration were performed as described in Section 2.6. After 48 h of incubation, the supernatant was discarded, and the cells were washed twice with pre-cooled PBS. A volume of 150 µL of RIPA lysis buffer (Solarbio, Beijing, China) was added and incubated on ice. After sufficient lysis, the supernatant was centrifuged, and the protein concentration was determined using a BCA kit (Thermo, Waltham, MA, USA). The SDS-PAGE gel system was chosen based on the molecular weight of the target proteins to perform electrophoresis. After electrophoresis, the processed samples were transferred to a membrane and incubated at room temperature for 2 h to block non-specific binding. After membrane transfer, the membranes were incubated with primary antibodies against CypD (Proteintech Group, Wuhan, China), SIRT3 (Abcam, Cambridge, UK), P-MKK6 (Bioss, Beijing, China), P-P38 (Bioss, Beijing, China), DDIT3 (Bioss, Beijing, China), Cleaved-caspase-3 (Abcam, Cambridge, UK), and β-actin (ZSGB-BIO, Beijing, China) (1:1000) at 4 °C overnight. After primary antibody binding, the membranes were incubated with the corresponding secondary antibody (ZSGB-BIO, Beijing, China) (1:3000) at room temperature for 1 h. Immunoblot bands were detected using an enhanced chemiluminescence system (Analytik Jena AG, Jena, Germany). The bands were analyzed using ImageJ (v1.8.0) software.

P-MKK6 = assay: Western blot; format: cell-based, human; settings: with increasing concentrations vs blank control, p < 0.001
Protocol: as §3

CypD = assay: qRT-PCR; format: cell-based, human; settings: vs blank control, BEL-7402, p < 0.05
Protocol: (§4) Total RNA was extracted from BEL-7402 cells before and after Mito-ICT-4 treatment using the Trizol method. The RNA was then reverse transcribed and used for quantitative real-time PCR (qRT-PCR) analysis. All gene sequences were obtained from the official website of NCBI (http://ncbi.nlm.nih.gov, accessed on 16 December 2023), and primers were designed and synthesized by Sangon Biotech. β-actin was used as an internal reference. To each well, 10 µL of 2 × SGExcel FastSYBR (Sangon Biotech, Shanghai, China) mixture was added, along with 0.4 µL each of forward and reverse primers (F/R), followed by 2 µL of cDNA. The volume was then adjusted to 20 µL with water. The qRT-PCR amplification procedure included the following steps: pre-denaturation at 95 °C for 3 min, denaturation at 95 °C for 15 s, and annealing at 60 °C for 45 s. A total of 45 cycles were performed. Fluorescence signals were collected from 60 °C to 95 °C using an ABI 7500 fluorescence quantitative PCR instrument (ABI, Waltham, MA, USA). Gene expression was calculated using the 2^−ΔΔCt method.

DDIT3 = assay: qRT-PCR; format: cell-based, human; settings: vs blank control, BEL-7402, p < 0.05
Protocol: as §4

MKK6 = assay: qRT-PCR; format: cell-based, human; settings: vs blank control, BEL-7402, p < 0.05
Protocol: as §4

P38 = assay: qRT-PCR; format: cell-based, human; settings: vs blank control, BEL-7402, p < 0.05
Protocol: as §4

SIRT3 = assay: qRT-PCR; format: cell-based, human; settings: vs blank control, BEL-7402, p < 0.05
Protocol: as §4

IC50 (MCF-7): 10.8 ± 1.2 µM | IC50 (PC-3M): 11.3 ± 1.55 µM | accumulation in mitochondria relative to ICT ([1]; 9 h): approximately 2.5 times
Structure (SMILES): COc1ccc(-c2oc3c(CC=C(C)C)c(OC(=O)CCCCCCCCCC[P+](c4ccccc4)(c4ccccc4)c4ccccc4)cc(O)c3c(=O)c2O)cc1 [Mito-ICT-4]
fate after entering the mitochondria [1]: hydrolysis to ICT; also recorded: hydrolyzed to ICT | mitochondrial membrane potential (BEL-7402 cells): reduction | expression of Cl-caspase-3 (Cl-caspase-3; high-concentration group vs control, p < 0.001): significantly higher | expression of Cl-caspase-3 (Cl-caspase-3; low-concentration group vs control, p < 0.01): elevated | expression level of P-MKK6 (P-MKK6): decreased significantly | CypD gene expression level (CypD): significantly upregulated | DDIT3 gene expression level (DDIT3): significantly upregulated | MKK6 gene expression level (MKK6): significantly downregulated | P38 gene expression level (P38): significantly downregulated | SIRT3 gene expression level (SIRT3): significantly downregulated

From article PMC12029982, “The Mechanism of a Novel Mitochondrial-Targeted Icaritin Derivative in Regulating Apoptosis of BEL-7402 Cells Based on the SIRT3 and CypD-Mediated ROS/p38 MAPK Signaling Pathway” (Molecules, 2025)
